The text below walks through data of patent US20200000742A1, “COMBINATION” (priority 2016, published 2020).

In this experiment the test system is log phase NDM-1 Klebsiella Pneumoniae (NCTC13443). The experiment in a line: Time-kill method over 24 hours (CFU counts). The experiment is classed as cell-based. To be noted: FIG. 1. The method, then: As described hereinabove, time-kill methods are another accepted test for ascertaining the presence or absence of synergy, and involve comparing the dynamic effect of a drug combination with each drug alone when assessing the effect on bacterial log or stationary-growth over time.
• 1. Bacterial strain used: NCTC13443 strain of Klebsiella Pneumoniae • 2. Growth of bacteria: Log phase growth of NCTC13443 was carried out according to known methods in the art, e.g. SOP R-005-00 Log Phase Growth of Bacteria. • 3. Compound preparation: dichlorophen and meropenem trihydrate were both obtained from commercial sources (e.g. Sigma-Aldrich® UK). • 4. The overnight culture was diluted with nutrient broth (Oxoid) to 10^7 CFU/ml and 280 μl and 290 μl of the culture was added to each combination well and drug respectively, to make the final concentration of 300 μl. • 5. Incubation of the compounds with the bacterial suspension was carried out for 24 hours. At 0, 2, 4, 7 and 24 hours, CFU counts were performed to measure the kill effects of the drug combination.

Consider `Oc1ccc(Cl)cc1Cc1cc(Cl)ccc1O` [dichlorophen, 4-chloro-2-[(5-chloro-2-hydroxyphenyl)methyl] phenol], for which, where the note is “used alone at 64 mg/L”, the “effect against log phase NDM-1 Klebsiella Pneumoniae (time-kill)” value is given as “little or no effect”.
`C[C@@H](O)[C@H]1C(=O)N2C(C(=O)O)=C(S[C@@H]3CN[C@H](C(=O)N(C)C)C3)[C@H](C)[C@H]12` [meropenem trihydrate]: the “effect against log phase NDM-1 Klebsiella Pneumoniae (time-kill)” value (used alone at 512 mg/L) was “little or no effect”.
